# Reference: paper PMC9848259 (Journal of Enzyme Inhibition and Medicinal Chemistry, 2023)
# How the values were obtained:
# [1] = target: T1, BuChE (from equine serum) (Equus caballus, UniProt P81908); assay: biochemical; conditions: for Selectivity for BuChE: IC50(AChE)/IC50(BuChE); for IC50: means ± SD of three experiments
# T1 construct: purchased Sigma Aldrich; host or cells: equine serum
# Method: (§1) The capacity of the novel cyclopentaquinoline hybrids to inhibit AChE (from the electric eel) and BuChE (from equine serum) were determined by the modified colorimetric Ellman’s method[38]^,[39]. Both enzymes, DTNB – Ellman’s reagent (5,5′-dithiobis-(2-nitrobenzoic acid)), acetyltiocholine iodide (ATCI) were obtained from Sigma Aldrich. AChE and BuChE samples in phosphate buffer (PBS) pH 8.0 were incubated in 96-well plates in the presence of the substrate (ATCI), 76 µl of DTNB and the tested compound at various concentration at room temperature for 10 min (AChE) or eight minutes (BuChE).
# [2] = target: T2, AChE (from the electric eel) (Electrophorus electricus, UniProt O42275); assay: biochemical; conditions: for Selectivity for AChE: IC50(BuChE)/IC50(AChE); for IC50: means ± SD of three experiments
# T2 construct: purchased Sigma Aldrich
# Method: as §1
# Aβ42 = target: T3, Aβ42 (Homo sapiens, UniProt P05067); assay: In cellulo β-amyloid assay, Th-S fluorescence in E. coli over-expressing Aβ42; type: cell-based, Escherichia coli; conditions: 10 µM
# T3 construct: expressed in transfected cells; host or cells: Escherichia coli BL21 (DE3), pET vector
# Method: Inhibition assay in Escherichia coli cells over-expressing amyloid proteins. […] Escherichia coli competent cells BL21 (DE3) were transformed with the required pET vectors carrying the DNA sequence of Aβ42 peptide. Because of the addition of the initiation codon ATG in front of genes, the over-expressed Aβ42 contains an additional methionine residue at their N terminus. For overnight culture preparation, a colony of BL21 (DE3) bearing the plasmid to be expressed was inoculated in 10 ml of M9 minimal medium containing 50 μg/ml of kanamycin at 37 °C. […] The bacterial culture was then grown at 37 °C, with orbital agitation of 250 rpm. When the cell density reached OD600nm–0.6, 980 μL of the culture were transferred into 1.5 ml conical tubes containing 10 μL of the compound to be tested dissolved in DMSO, and 10 μL of 100 mM isopropyl 1-thio-β-D-galactopyranoside (IPTG). The final concentration of the compound was set to 10 μM. The samples were grown overnight at 37 °C under agitation at 1400 rpm, using a Thermomixer (Eppendorf, Hamburg, Germany). […]
# The fluorescence normalisation was carried out considering as 100% the Th-S fluorescence of the bacterial cells expressing Aβ42 in the absence of drug, and 0% the Th-S fluorescence of the bacterial cells non-expressing Aβ42 (in absence of the protein production inductor, IPTG). […]
# [3] = calibration substance; cited from earlier work
# [4] = system: Human hepatic stellate cells (HSCs); assay: in vitro; type: cell-based; conditions: 0.1 µM, 24 h
# Method: Human hepatic stellate cells (HSCs, Sciencell) were grown in the Stellate Cell Medium (Sciencell) supplemented with 2% Foetal Bovine Serum (Sciencell), 1% Stellate Cell Growth Supplement (Sciencell) and 1% penicillin/streptomycin solution (Sciencell). The cells were cultured in the incubator at 37 °C and 5% CO2. To start the experiment, the cells were seeded at a density of 5 × 10^3 cells/well in 96-well plates and incubated (37 °C, 5% CO2) for 24 h. After incubation, medium was removed from the wells and the cells were exposed to 100 µl of the compound over a range of concentrations (from 0.1 to 10 µM) or 100 µl of culture medium alone (blank control). The cells were then further incubated for 24 h. After this time, the medium was removed, the cells were washed with PBS and 50 µl of MTT solution (0.75 mg/ml) was added to each well. The plates were incubated in the dark at 37 °C for another two hours. The MTT solution was then removed from the wells and 100 µl of DMSO was added. The plates were incubated at room temperature for 10 min and then 5 µl of Sorensen Buffer was added to each well. The plates were swayed and the absorbance at 570 nm was measured with a microplate reader (Synergy H1, BioTek, Winooski, VT, USA). The cell viability was expressed as a percentage of the control values (blank control)[40]^,[46]^,[47].
# SH-SY5Y cells [5] = assay: Neuroprotection against rotenone/oligomycin A, co-incubation, MTT test; type: cell-based, human; conditions: Rotenone/Oligomycin A 30/10 µM
# SH-SY5Y cells [6] = assay: Neuroprotection against rotenone/oligomycin A, pre-incubation, MTT test; type: cell-based, human; conditions: Rotenone/Oligomycin A 30/10 µM, compound 0.001 µM
# SH-SY5Y cells [7] = assay: Neuroprotection against H2O2-induced oxidative stress, MTT test; type: cell-based, human; conditions: H2O2 100 µM
# hyaluronidase = target: T4, hyaluronidase (Bos taurus, UniProt Q2YDK3); assay: Hyaluronidase inhibition test (turbidimetric); type: biochemical
# T4 sequence (Q2YDK3 36-553): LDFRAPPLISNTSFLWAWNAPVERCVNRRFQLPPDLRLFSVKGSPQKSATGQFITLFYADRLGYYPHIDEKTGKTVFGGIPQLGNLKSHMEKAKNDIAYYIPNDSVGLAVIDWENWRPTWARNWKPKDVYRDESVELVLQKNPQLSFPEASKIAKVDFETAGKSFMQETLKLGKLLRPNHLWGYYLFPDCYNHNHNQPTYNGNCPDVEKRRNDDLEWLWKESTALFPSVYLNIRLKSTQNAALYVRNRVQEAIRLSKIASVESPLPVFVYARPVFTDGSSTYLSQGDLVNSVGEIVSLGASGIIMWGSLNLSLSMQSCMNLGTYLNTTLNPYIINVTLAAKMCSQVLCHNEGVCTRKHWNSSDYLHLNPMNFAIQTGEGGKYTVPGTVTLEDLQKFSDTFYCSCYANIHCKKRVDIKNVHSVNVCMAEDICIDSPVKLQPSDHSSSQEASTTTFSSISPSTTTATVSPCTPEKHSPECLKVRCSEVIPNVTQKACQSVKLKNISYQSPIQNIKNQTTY
# Method: Hyaluronidase inhibition was established by turbidimetry according to USP XXII-NF XVII[43], which was further adapted to use in 96-well plates by Piwowarski et al.[44] and the principle of this assay is based on the following reaction: hyaluronic acid→hyaluronidase depolymerization products+[…]
# The ability to inhibit hyaluronidase was assessed using a turbidimetric method based on spectrophotometric measurement of turbidity resulting from the formation of hyaluronan-bovine albumin complexes in an acidic environment. The analysis was performed against a positive control. Briefly, 20 µl of the tested compound in monosodium phosphate buffer (pH 7.0) was added to 40 µl of hyaluronidase solution (22.55 U/ml, Sigma Aldrich) in the same buffer. The mixture was incubated for 10 min in the dark at 37 °C. Next, 40 µl of hyaluronic acid solution (0.03%, Sigma Aldrich) in monosodium phosphate buffer (pH 5.35) was added to all wells and the mixture was further kept in the dark at 37 °C for 45 min. Finally, 300 µl of bovine serum albumin solution (0.1%, Serva) in sodium acetate buffer (pH 3.75) was added to the mixture, and the 96-well plate was incubated at room temperature for next 10 min. Changes in turbidity at 600 nm were measured by a microplate reader (BioTek, Winooski, VT, USA). Heparin (WZF, Polfa) was used as a positive control. […]
# T2 sequence (O42275 24-633): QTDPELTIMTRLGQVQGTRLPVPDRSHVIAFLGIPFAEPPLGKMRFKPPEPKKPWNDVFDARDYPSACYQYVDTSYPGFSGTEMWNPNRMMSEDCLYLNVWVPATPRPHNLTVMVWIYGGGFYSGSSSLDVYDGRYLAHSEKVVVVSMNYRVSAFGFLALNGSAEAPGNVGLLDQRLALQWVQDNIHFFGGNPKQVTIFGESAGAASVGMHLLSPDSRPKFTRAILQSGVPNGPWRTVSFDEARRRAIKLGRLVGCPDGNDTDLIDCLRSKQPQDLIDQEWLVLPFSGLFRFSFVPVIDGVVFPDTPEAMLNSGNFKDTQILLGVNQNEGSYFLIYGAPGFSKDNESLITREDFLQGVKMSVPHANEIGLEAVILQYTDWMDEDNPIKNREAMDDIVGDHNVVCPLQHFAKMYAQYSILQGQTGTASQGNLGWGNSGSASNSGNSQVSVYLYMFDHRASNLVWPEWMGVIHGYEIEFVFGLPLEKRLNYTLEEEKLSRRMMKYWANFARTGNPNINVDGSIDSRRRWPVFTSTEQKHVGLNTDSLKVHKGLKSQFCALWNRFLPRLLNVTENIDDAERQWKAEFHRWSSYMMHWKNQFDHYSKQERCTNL
# T1 sequence (P81908 whole entry): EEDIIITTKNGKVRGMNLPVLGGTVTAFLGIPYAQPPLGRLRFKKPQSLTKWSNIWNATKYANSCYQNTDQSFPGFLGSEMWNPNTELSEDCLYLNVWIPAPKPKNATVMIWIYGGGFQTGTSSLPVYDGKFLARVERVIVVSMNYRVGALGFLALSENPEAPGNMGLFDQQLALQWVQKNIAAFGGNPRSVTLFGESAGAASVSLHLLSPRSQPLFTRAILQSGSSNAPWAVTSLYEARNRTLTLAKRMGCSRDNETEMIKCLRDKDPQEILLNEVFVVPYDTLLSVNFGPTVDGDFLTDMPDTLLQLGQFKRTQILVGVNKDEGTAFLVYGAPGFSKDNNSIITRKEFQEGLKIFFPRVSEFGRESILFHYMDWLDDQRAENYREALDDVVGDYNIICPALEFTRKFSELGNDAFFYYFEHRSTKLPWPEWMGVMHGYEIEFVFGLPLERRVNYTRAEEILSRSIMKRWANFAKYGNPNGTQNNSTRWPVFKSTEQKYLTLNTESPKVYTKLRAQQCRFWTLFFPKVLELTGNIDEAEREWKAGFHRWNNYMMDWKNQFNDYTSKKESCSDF
# T3 sequence (P05067 672-713): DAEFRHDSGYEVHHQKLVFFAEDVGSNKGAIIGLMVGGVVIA
Molecule,Selectivity for BuChE [1],IC50 [1] [nM],Selectivity for AChE [2],IC50 [2] [nM],other results
O=C(NCCNc1c2c(nc3ccccc13)CCC2)c1cc(Cl)cc(Cl)c1 [Compound 3a],6.88,225 ± 21,0.15,1540 ± 121,
O=C(NCCCNc1c2c(nc3ccccc13)CCC2)c1cc(Cl)cc(Cl)c1 [Compound 3b],,889 ± 27,0.56,1180 ± 134,
O=C(NCCCCNc1c2c(nc3ccccc13)CCC2)c1cc(Cl)cc(Cl)c1 [Compound 3c],9.18,126 ± 7,0.11,1160 ± 130,
O=C(NCCCCCNc1c2c(nc3ccccc13)CCC2)c1cc(Cl)cc(Cl)c1 [Compound 3d],0.19,1120 ± 180,5.33,211 ± 31,
O=C(NCCCCCCCNc1c2c(nc3ccccc13)CCC2)c1cc(Cl)cc(Cl)c1 [Compound 3f],2.16,117 ± 27,0.46,253 ± 42,
O=C(NCCCCCCCCNc1c2c(nc3ccccc13)CCC2)c1cc(Cl)cc(Cl)c1 [Compound 3g],4.50,330 ± 34,0.22,1480 ± 133,
O=C(NCCCCCCCCCNc1c2c(nc3ccccc13)CCC2)c1cc(Cl)cc(Cl)c1 [Compound 3h],1.10,131 ± 11,0.91,145 ± 13,
"O=C(NCCCCCCCCNc1c2c(nc3cc(Cl)ccc13)CCCC2)c1ccc2nc(-c3ccc(Cl)cc3)c3c(c2c1)NCCC3 [DP128, reference compound]",,,,,anti-amyloid (inhibition) capacity for Aβ42 (Aβ42): 69.2 ± 4.1
CC(CN1c2ccccc2Sc2ccccc21)N(C)C.Cl (stereo not drawn) [Promethazine HCl],,,,,Experimental properties pKa [3]: 9.10[54]
"Nc1c2c(nc3ccccc13)CCCC2 [Tacrine, 9-amino-1,2,3,4-tetrahydroacridine, reference compound]",,,,,"cell viability (hepatotoxicity, MTT) [4]: 100.67%"
"Cc1c(C)c2c(c(C)c1O)CCC(C)(C(=O)O)O2 (stereo not drawn) [Trolox, reference compound]",,,,,% neuroprotection (SH-SY5Y cells [5]; compound 0.001 µM): 5.60%; % neuroprotection (SH-SY5Y cells [5]; compound 0.01 µM): 4.67%; % neuroprotection (SH-SY5Y cells [5]; compound 0.1 µM): 0.35%; % neuroprotection (SH-SY5Y cells [6]): 2.15%; % neuroprotection (SH-SY5Y cells [7]; compound 0.01 µM): 77.16%; % neuroprotection (SH-SY5Y cells [7]; compound 0.1 µM): 91.22%; % neuroprotection (SH-SY5Y cells [7]; compound 1 µM): 96.03%; % neuroprotection (SH-SY5Y cells [7]; compound 10 µM): 95.05%
heparin,,,,,IC50 (hyaluronidase): 56400 ± 780 nM
